Measurements published in BindingDB's records for doi:10.1021/jm00045a022 (National Institute of Diabetes and Digestive and Kidney …, 1994).

Assay: Inhibition of [3H](+)-pentazocine binding to sigma receptor of guinea pig brain

Row | Compound | Ki [µM]
1 | COc1cccc([C@]23CCN(C)[C@H](CC(=O)C2)C3)c1 | 0.762
2 | C[N+]1(C)CCC2(c3cccc(O)c3)CC(=O)C(=Cc3ccccc3)C1C2 (configuration not stated) [5-(3-Hydroxy-phenyl)-2,2-dimethyl-7-oxo-8-[1-phenyl-meth-(E)-ylidene]-2-azonia-bicyclo[3.3.1]nonane; iodide] | 5.4
